Experimental findings from ChEMBL document CHEMBL1134676, “Synthesis and activity of novel and selective I(Ks)-channel blockers” (J Med Chem, 2001) are described below.

SMILES strings stand for the structures.

The target in test [1] is T1, Voltage-gated potassium channel, IKs; KCNQ1(Kv7.1)/KCNE1(MinK) (Homo sapiens, UniProt P15382+P51787). Put plainly: Inhibition of human IKs-channel expressed in Xenopus oocytes. It counts as cell-based, Oocyte.
Test [2] has as its target T1, Voltage-gated potassium channel, IKs; KCNQ1(Kv7.1)/KCNE1(MinK). Put plainly: Inhibition of human IKs-channel expressed in Xenopus oocytes,(Experiment 1). It is filed as cell-based, Oocyte.

T1 sequence (P51787 whole entry): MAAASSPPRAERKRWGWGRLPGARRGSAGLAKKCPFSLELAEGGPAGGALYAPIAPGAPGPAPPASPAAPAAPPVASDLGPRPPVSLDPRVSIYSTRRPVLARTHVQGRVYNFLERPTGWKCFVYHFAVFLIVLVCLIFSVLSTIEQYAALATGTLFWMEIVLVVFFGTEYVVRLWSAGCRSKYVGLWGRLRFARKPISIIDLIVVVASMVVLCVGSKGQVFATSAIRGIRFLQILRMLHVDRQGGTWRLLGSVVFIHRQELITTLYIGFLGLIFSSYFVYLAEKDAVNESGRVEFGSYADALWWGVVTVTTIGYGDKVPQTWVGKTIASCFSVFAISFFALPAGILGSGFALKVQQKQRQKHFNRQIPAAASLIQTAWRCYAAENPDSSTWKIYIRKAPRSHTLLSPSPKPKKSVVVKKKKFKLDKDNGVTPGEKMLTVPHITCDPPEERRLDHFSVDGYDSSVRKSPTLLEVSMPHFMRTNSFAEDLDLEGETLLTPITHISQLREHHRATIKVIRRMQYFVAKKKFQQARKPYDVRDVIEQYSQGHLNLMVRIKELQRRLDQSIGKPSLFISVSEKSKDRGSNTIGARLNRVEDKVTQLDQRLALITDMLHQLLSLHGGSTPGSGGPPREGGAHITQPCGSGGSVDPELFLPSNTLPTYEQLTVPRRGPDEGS

In turn, `CN(C1c2cc(OCc3ccccc3)ccc2OC(C)(C)C1O)S(C)(=O)=O` (configuration not stated) showed an IC50 in test [1] of 200 nM.
`CCS(=O)(=O)N(C)[C@@H]1c2cc(OCc3ccccc3)ccc2OC(C)(C)[C@H]1O` displayed an IC50 in test [1] of 400 nM. Against the preceding molecule, the IC50 is about 2-fold higher.
For `CCS(=O)(=O)N(C)C1c2cc(F)ccc2OC(C)(C)C1O` (configuration not stated), in test [1], the IC50 turned out to be 1200 nM.
The molecule `CCS(=O)(=O)N(C)C1c2ccccc2OC(C)(C)C1O` (configuration not stated) returned a half-inhibitory concentration (IC50) in test [1] of 3100 nM.
In test [2], `CCS(=O)(=O)N(C)[C@H]1c2cc(C#N)ccc2OC(C)(C)[C@@H]1O` displayed an IC50 of 5000 nM.
In test [1], `CCS(=O)(=O)N(C)[C@H]1c2cc(OCc3ccccc3)ccc2OC(C)(C)[C@@H]1O` displayed an IC50 of 50 nM.
In turn, `CCCCS(=O)(=O)N(C)C1c2cc(C#N)ccc2OC(C)(C)C1O` (configuration not stated) displayed an IC50 in test [1] of 58000 nM.
On the same count and under the same terms, with `CN(C1c2cc(Cl)ccc2OC(C)(C)C1O)S(C)(=O)=O` (configuration not stated) the figure was 1100 nM; with `CCS(=O)(=O)N(C)C1c2cc(C#N)ccc2OC(C)(C)C1O` (configuration not stated), 6900 nM; with `CCCCOc1ccc2c(c1)C(N(C)S(C)(=O)=O)C(O)C(C)(C)O2` (configuration not stated), 250 nM.
`CCS(=O)(=O)N(C)[C@@H]1c2cc(F)ccc2OC(C)(C)[C@H]1O` gave an IC50 in test [1] of 2200 nM.
In turn, `CCS(=O)(=O)N(C)[C@@H]1c2cc(C#N)ccc2OC(C)(C)[C@H]1O` came in with an IC50 in test [2] of 44500 nM.

One may read the IC50 as the concentration that gives 50% inhibition. Lower therefore signals inhibition by little substance.
